In the assay the test system is tibial growth plate. The assay is described as follows: Estrogen-induced growth plate senescence in Cxxc5+/+ and Cxxc5−/− mice. As to conditions: E2 cypionate 70 μg/kg i.m. once a week for 3 wk. It is filed as in vivo, mouse. The procedure: Figure 2. The effects of estrogen on CXXC5 expression and the mediation of growth plate senescence. (A) Immunoblotting (upper) and quantitative analyses (mean ± SEM, n = 3) (lower) in C28/I2 cells treated with 100 nM E2 (17β-estradiol) for 0, 1, 3, 6, 24, 48, or 72 h. (B) Immunocytochemical staining (left) and quantitative analyses of the fluorescent intensity (mean ± SEM, n = 3; t test, **P < 0.005 and ***P < 0.0005) (right) in C28/I2 cells treated with 100 nM E2 for 40 h. Scale bars, 100 μm. (C–E) Tibial organ cultures (E15.5) incubated with 100 nM E2 for 6 d. Representative images at 6 d (C, left) and quantitative analyses of the growth changes (mean ± SEM, n = 5; t test, ***P < 0.0005) (C, right). Scale bar, 1 mm. H&E staining (D, left) and quantification of each zone height (mean ± SEM, n = 5; t test, *P < 0.05 and **P < 0.005) (D, right) in the growth plate. Scale bar, 200 μm. IHC analyses of β-catenin and CXXC5 (E). Scale bars, 50 μm. (F) 3-wk-old Cxxc5^+/+ and Cxxc5^−/− mice were treated with E2 cypionate (70 μg/kg) by i.m. injection once a week for 3 wk (n = 3–4). Representative images of H&E staining and IHC analyses for BrdU, β-catenin, and CXXC5 in the growth plates of proximal tibiae are shown. The area within the dashed lines indicates the growth plate zone. Black and white scale bars, 50 μm. Yellow scale bar, 20 μm. RZ, resting zone; PZ, proliferative zone; HZ, hypertrophic zone. […]

Consider `C[C@]12CC[C@@H]3c4ccc(O)cc4CC[C@H]3[C@@H]1CC[C@@H]2O` [E2, 17β-estradiol], for which the “structural senescence of the tibial growth plate” value is “hardly observed”.

Values taken from article PMC6458850, “CXXC5 mediates growth plate senescence and is a target for enhancement of longitudinal bone growth” (Life Science Alliance, 2019).
